Assay results from patent publication US10690666B2, “Methods and compositions for modulating TH-GM cell function” (National University of Singapore, priority 2014, dated 2020).

What was measured:
STAT5 = experiment: Cytokine-induced STAT5 activation in CD4+ T cells, immunoblotting; type: cell-based, mouse; conditions: for STAT5 activation (tyrosine phosphorylation): CD4+ T cells cultured with TGF-β and IL-6 3 days, starved 6 h
Method: (§1) In FIG. 10A, purified CD4^+ T cells were cultured with TGF-β and IL-6 for 3 days, followed by starvation for 6 h. Then cells were treated with various cytokines for 30 min, and pSTAT3 and pSTAT5 was determined by immunoblotting. STAT3 and STAT5 were further detected after stripping. […] The RT-PCR data were normalized to β-Actin. […] The frequencies of GM-CSF^+ and IL-17^+ cells among CD4^+CD44^hi T cells were measured by flow cytometry. *p<0.05.
(§2) FIGS. 17A-17C show flow cytometry of CD25 and CD127 on the surface of naïve CD4^+ T cells or cells activated with anti-CD3 and anti-CD28 at various time points as indicated. […] The RT-PCR data were normalized to β-Actin, and expression in naïve T cells activated for 2 h without cytokine was set to 1.
As shown in FIGS. 18A and 18B, CD4^+ T cells were activated with anti-CD3 and anti-CD28 for 3 days. […] The pTyr-STAT5 and β-Actin were detected by immunoblotting (FIG. 18A). GM-CSF mRNA expression was measured by RT-PCR (FIG. 18B). The RT-PCR data were normalized to β-Actin, and expression in cells without cytokine stimulation was set to 1. The ChIP assay shown in FIG. 18C was performed with normal IgG or STAT5-specific antibody. The binding of antibodies to Csf2 promoter region was detected by RT-PCR.
(§3) Next, the mechanism by which STAT5 regulates GM-CSF expression was investigated. […] Therefore, the effect of these two cytokines on GM-CSF induction in autoreactive T cells was further examined. […] GM-CSF and IL-17 production by CD4^+ T cells were analyzed by intracellular cytokine staining.

naïve CD4+ T cells [1] = experiment: In vitro TH-GM (GM-CSF-expressing TH) differentiation from naïve CD4+ T cells; type: cell-based, mouse; conditions: anti-CD3 and anti-CD28 plus cytokine or antibody
Method: Naïve CD4^+ T cells were primed with plate-bound anti-CD3 and soluble anti-CD28 in the presence of a combination of various cytokines and neutralizing antibodies as indicated. GM-CSF, IL-17 and IFN-γ expression was analyzed by intracellular staining (FIG. 13A) or RT-PCR (FIG. 13B)
GM-CSF and IFN-γ expression in naive CD4^+ T cells activated for 72 h with anti-CD3 alone or plus anti-CD28 (FIG. 14A). In FIG. 14B, sorted naïve CD4^+ T cells were stimulated with anti-CD3 and anti-CD28 in the presence of neutralizing antibodies against IL-12 and IFN-γ without or with the addition of IL-6. The frequencies of GM-CSF^+ and IL-17^+ cells were measured by intracellular staining (FIG. 14B). In FIG. 14C, naïve CD4^+ T cells from Stat3^+/+ and Stat3^−/− mice were polarized under conditions as indicated for 72 h. The frequencies of GM-CSF^+ and IL-17^+ cells were analyzed. In FIG. 14D, naïve CD4^+ T cells were activated with anti-CD3 and anti-CD28 in the presence of IL-2 or anti-IL-2. The frequencies of GM-CSF^+, IL-17^+ and IFN-γ^+ cells were analyzed.
Naïve CD4^+ T cells were primed with plate-bound anti-CD3 and soluble anti-CD28 in the presence of various concentration of IL-7 as indicated. GM-CSF and IFN-γ expression was analyzed by intracellular staining (FIG. 15A) or ELISA (FIG. 15B). In FIGS. 15C and 15D, Stat5^+/+ and Stat5^−/− naïve CD4^+ T cells were activated with anti-CD3 and anti-CD28 in the presence IL-7 for 3 days. GM-CSF, IL-17 and IFN-γ expression was analyzed by intracellular cytokine staining (FIG. 15C). GM-CSF secretion was measured by ELISA (FIG. 15D).
In FIG. 22E, naïve CD4^+ T cells were isolated and activated under neutral condition or TH-GM cell-favoring condition with the addition of different concentrations of STAT5 inhibitor for 3 days. GM-CSF and IFN-γ expression was analyzed by intracellular cytokine staining and flow cytometry.

[2] = tested on: CD62LhiCD44lo and CD62LloCD44hi T cells; experiment: GM-CSF expression in sorted CD62LhiCD44lo and CD62LloCD44hi T cells, RT-PCR; type: cell-based, mouse; conditions: anti-CD3 and anti-CD28, cytokine 4 h
Method: Splenocytes were obtained from MOG35-55/CFA-immunized Stat5^+/+ and Stat5^−/− mice before disease onset and challenged with MOG35-55 (20 μg/ml) in the absence or presence of IL-7 for 48 h. Frequencies of GM-CSF^+ and IL-17^+ cells among CD4^+CD44^hi T cells were measured by flow cytometry (FIG. 11A). GM-CSF secretion was measured by ELISA (FIG. 11B). Data represent two independent experiments with two to three mice per group. Splenic CD62L^hiCD44^lo and CD62L^loCD44^hi T cells from MOG35-55/CFA-immunized mice were sorted out. Cells were stimulated with anti-CD3 and anti-CD28 in the absence or presence of IL-7 for 4 h and then harvested for the analysis of GM-CSF expression by RT-PCR (FIG. 11C). *p<0.05
Total RNA was extracted from cells with RNeasy kit (Qiagen) according to the manufacturer's instruction. Complementary DNA (cDNA) was synthesized with Superscript reverse transcriptase (Invitrogen). Gene expressions were measured by 7500 real-time PCR system (Applied Biosystems) with SYBR qPCR kit (KAPA). Actinb, Gapdh or Rn18S was used as internal control. The primer sequences are available upon request.
Thus, CD62L^hiCD44^lo and CD62L^loCD44^hi T cells were sorted from Stat5^−/− mice and littermate controls during EAE development, and then activated cells in the presence or absence of IL-7.

naïve CD4+ T cells [3] = experiment: GM-CSF mRNA expression in naïve CD4+ T cells stimulated with IL-2 or IL-7, RT-PCR; type: cell-based, mouse; conditions: anti-CD3 and anti-CD28 plus cytokine
Method: as §2
The primer sequences are available upon request.

naïve CD4+ T cells [4] = experiment: In vitro TH17 differentiation; type: cell-based, mouse; conditions: data not shown
Method: CD4^+ T cells were obtained from spleens and lymph nodes by positive selection and magnetic separation (Miltenyi Biotech), followed by purification of naïve CD4^+ T cell population (CD4^+CD25^−CD62L^hiCD44^lo) sorted with FACS Aria. Naïve CD4^+ T cells were stimulated with plate-bound anti-CD3 (3 μg/ml; BD Pharmingen) and anti-CD28 (1 μg/ml; BD Pharmingen) in presence of different combinations of neutralizing antibodies and cytokines for 3˜4 days: for neutral conditions, no addition of any cytokine or neutralizing antibody; for TH1 conditions, IL-12 (10 ng/ml), and anti-IL-4 (10 μg/ml, BD Pharmingen); for TH17 conditions, hTGF-β (3 ng/ml), IL-6 (20 ng/ml), anti-IFN-γ (10 μg/ml, eBioscience), and anti-IL-4 (10 μg/ml); for an alternative TH17 conditions, IL-6 (20 ng/ml), IL-23 (10 ng/ml), IL-1β (10 ng/ml), anti-IFN-γ (10 μg/ml), and anti-IL-4 (10 μg/ml). […] Cells were acquired on the LSR II (BD Biosciences) and analyzed with FlowJo software (Tree Star).
Stat5 deletion (Cd4-cre; Stat5^f/−) mice was reported to develop peripheral lymphopenia, with a reduction of both CD4^+ and CD8^+ T cells (Yao et al., 2006). […] Furthermore, increased frequencies of IL-17^+ and IFN-γ^+ cells were detected among CD4^+ T cells in spleens of Stat5^−/− mice (FIG. 4C), which further support the idea that the resistance to EAE in Stat5^−/− mice is likely independent of TH1 and TH17 generation. […]

CD4+CD44hi T cells = experiment: MOG35-55 challenge of splenocytes from immunized mice, GM-CSF expression; type: cell-based, mouse; conditions: MOG35-55 (20 μg/ml) plus cytokine, 48 h
Method: as §1, §3

naïve CD4+ T cells [5] = conditions: El-Behi et al., 2011; cited from earlier work

Molecule | STAT5 activation (tyrosine phosphorylation) (STAT5; cytokine 30 min) | GM-CSF-expressing cell differentiation from naïve CD4+ T cells (naïve CD4+ T cells [1]) | further results
IL-1β: cytokine (R&D Systems) | neither IL-23 nor IL-1β seemed to be potent STAT5 stimulators | did not increase GM-CSF-expressing cell differentiation | 
IL-6: cytokine (R&D Systems), essential for TH17 differentiation |  | profound inhibitory effect | 
IL-7: cytokine interleukin-7 (R&D Systems) | potently activated STAT5 | strongly promoted | GM-CSF expression in CD62LhiCD44lo and CD62LloCD44hi T cells [2]: promoted GM-CSF expression; GM-CSF mRNA expression in naïve CD4+ T cells (naïve CD4+ T cells [3]): upregulated GM-CSF mRNA expression; STAT5 activation, Csf2 promoter binding and GM-CSF mRNA in activated CD4+ T cells (STAT5; CD4+ T cells activated 3 days, rested, then cytokine): induced STAT5 activation, Csf2 promoter binding and GM-CSF mRNA upregulation; STAT5 activation in naïve CD4+ T cells (STAT5; naïve CD4+ T cells, cytokine 30 min): induced STAT5 activation; TH17 differentiation (naïve CD4+ T cells [4]): not observed to have a demonstrable effect; frequency of GM-CSF+ T cells / GM-CSF expression in CD4+CD44hi T cells (CD4+CD44hi T cells): significantly promoted GM-CSF expression
TGF-β: cytokine (R&D Systems) |  |  | GM-CSF expression (naïve CD4+ T cells [5]): inhibits GM-CSF expression
IL-23: cytokine (R&D Systems) (protein, UniProt Q9NPF7 20-189; P29460 23-328, looked up) Interleukin-23 subunit alpha: RAVPGGSSPAWTQCQQLSQKLCTLAWSAHPLVGHMDLREEGDEETTNDVPHIQCGDGCDPQGLRDNSQFCLQRIHQGLIFYEKLLGSDIFTGEPSLLPDSPVGQLHASLLGLSQLLQPEGHHWETQQIPSLSPSQPWQRLLLRFKILRSLQAFVAVAARVFAHGAATLSP Interleukin-12 subunit beta: IWELKKDVYVVELDWYPDAPGEMVVLTCDTPEEDGITWTLDQSSEVLGSGKTLTIQVKEFGDAGQYTCHKGGEVLSHSLLLLHKKEDGIWSTDILKDQKEPKNKTFLRCEAKNYSGRFTCWWLTTISTDLTFSVKSSRGSSDPQGVTCGAATLSAERVRGDNKEYEYSVECQEDSACPAAEESLPIEVMVDAVHKLKYENYTSSFFIRDIIKPDPPKNLQLKPLKNSRQVEVSWEYPDTWSTPHSYFSLTFCVQVQGKSKREKKDRVFTDKTSATVICRKNASISVRAQDRYYSSSWSEWASVPCS | neither IL-23 nor IL-1β seemed to be potent STAT5 stimulators | did not increase GM-CSF-expressing cell differentiation | 
